Data published in US12434967B2, “Method for preparing a solid material for storing ozone, the material and the uses thereof” (priority 2019, dated 2025).

Tests used:
[1] = ozone release, first test: water added to powder in closed reactor, ozone detector; type: physicochemical; conditions: same conditions, after adding water
Experimental: In the first test, about 1.5 g of ozone storage material in powder form have been placed in a glass cup, which in turn has been placed in a glass reactor of volume 1.4 litres. The reactor can be hermetically closed and has been maintained at ambient temperature (˜20° C.).
A portable ozone detector (model X-an-5000 from Dräger, equipped with an XXS O3 cell specifically for ozone detection, detection limit equal to 0.02 ppm and resolution equal to 0.01 ppm, response time <10 s at 20° C.) has been introduced into the reactor and switched on near the powder cup. The detector thus placed makes it possible to continuously emphasise the presence of ozone in the reactor, from an ozone concentration higher than the detection limit of 0.02 ppm.
Secondly, using a graduated glass pipette, a volume of approximately 3 ml of distilled water has been introduced onto the powder through one of the upper openings of the reactor. The reactor has then been immediately hermetically closed again to monitor the course of the vapour phase composition of the reactor with the detector over time. The dissolution of part of the material (about ⅓ of the initial amount) by this addition of water (as the material is relatively soluble in water), caused a rapid increase in the ozone concentration over time as read on the detector (for example 0.1 ppm measured in 40 s; 0.2 ppm in 100 s). […]

[2] = in water under ambient conditions; cited from earlier work

Molecule | ozone release on the detector [1] | lifetime [2]
(2-hydroxypropyl)-β-cyclodextrin [native HP-β-CD] | no ozone release was observed | 
O=[O+][O-] [ozone] |  | about 20 minutes
